Measurements as given in US9545447B2, “Polymer-drug systems” (THE TEXAS A&M UNIVERSITY SYSTEM, priority 2013, dated 2017).
Read-outs that look alike come from different tables or passages of the source.

Assays:
[1] = test system: RAW 264.7 mouse macrophages; test: Cytotoxicity assay (MTS), RAW 264.7; assay type: cell-based
Description: (§1) Human ovarian adenocarcinoma cells (OVCAR-3) (5×10^3 cells/well) and RAW 264.7 mouse macrophages (2×10^4 cells/well) were plated in 96-well plate in RPMI-1640 medium and Dulbecco's Modified Eagle's Medium (DMEM) (20% and 10% fetal bovine serum, for the OVCAR-3 and RAW 264.7, respectively and 1% penicillin/streptomycin). […] The paclitaxel conjugate was prepared as described previously, and the Taxol®-mimicking formulation was prepared in similar composition to Taxol® (i.e. Cremophor-EL and ethanol, 1:1 v/v). For each well, 20 μL of every formulation was added to 100 μL of the medium. The cells were incubated with the formulations for 72 h and washed once with phosphate-buffered saline (PBS) and 100 μL of the complete medium was added to the cells. 20 μL of the MTS combined reagent was added to each well (Cell Titer 96® Aqueous Non-Radioactive Cell Proliferation Assay, Promega Co., Madison, Wis.). […] Absorbance was measured at 490 nm using SpectraMax M5 (Molecular Devices Co., Sunnyvale, Calif.). The cell viability was calculated based on the relative absorbance to the control untreated cells. The IC50 values were calculated using GraphPad Prism four-parameter fit, considering the 0% and 100% viabilities correspond to the medium control (no cells) and cells-treated with PBS, respectively.

[2] = test system: KB cells, a human nasal pharyngeal cancer cell line; test: Cell viability (WST-1), KB cells; assay type: cell-based; settings: Table 1, 72 h, PTX as free PTX
Description: Polymer paclitaxel and free paclitaxel were tested in KB cells, a human nasal pharyngeal cancer cell line and A549 cells, a human lung carcinoma cell line. KB and A549 cells (ATCC, Manassas, Va.) were maintained in monolayer cultures in folate free RPMI (Life Technologies, Carlsbad, Calif.) and F-12K media (Mediatech, Manassas, Va.) respectively, supplemented with 10% fetal bovine serum and penicillin/streptomycin antibiotics. For screening purposes 2,500 cells in 100 μL of complete cell culture media were plated in a 96 well plate (Corning, Lowell, Mass.) in triplicates and were then incubated for 24 h in a humidified CO2 cell culture incubator maintained at 37° C. Serial dilutions of polymer-paclitaxel conjugates and paclitaxel were prepared in PBS and added to cells in a volume of 10 μL. The cells were either incubated for a short period of 2 h or for longer continuous incubation of 72 h. After 2 h incubation, the media was replaced with 110 μL of fresh complete RPMI. Cell viability was assessed by using a colorimetric WST-1 cell proliferation kit (Roche, Indianapolis, Ind.) and following manufacturer's instructions. Cell viability was calculated as a percentage of the control cells treated with no drugs. […]

[3] = Saturate concentration of PTX in PBS buffer by UV; assay type: physicochemical
Description: The saturate concentration is around 1.7 ug/mL. PTX concentrations as low as 6.25 ng/mL were detected.

[4] = test system: Human ovarian adenocarcinoma cells (OVCAR-3); test: Cytotoxicity assay (MTS), OVCAR-3; assay type: cell-based
Description: as §1

CC(=O)O[C@H]1C(=O)[C@@]2(C)[C@H]([C@H](OC(=O)c3ccccc3)[C@]3(O)C[C@H](OC(=O)[C@H](O)[C@@H](NC(=O)c4ccccc4)c4ccccc4)C(C)=C1C3(C)C)[C@]1(OC(C)=O)CO[C@@H]1C[C@@H]2O [PTX, paclitaxel]
IC50 ([1]; RAW264.7, Table 1, 72 h, PTX as Taxol®-mimicking formulation (Cremophor-EL and ethanol, 1:1 v/v), read-out: IC50 (μM) RAW 264.7): 0.044 µM
IC50 ([1]; RAW264.7, Table 2, 72 hours, PTX as Taxol-mimicking formulation, read-out: IC50 (μM) in RAW 264.7): 0.04 µM
IC50 [2]: 0.0044 µM
saturate concentration of PTX [3]: around 1.7 ug/mL
IC50 ([4]; Table 1, 72 h, PTX as Taxol®-mimicking formulation (Cremophor-EL and ethanol, 1:1 v/v), read-out: IC50 (μM) OVCAR-3): 0.007 µM
IC50 ([4]; Table 2, 72 hours, PTX as Taxol-mimicking formulation, read-out: IC50 (μM)in OVCAR-3): 0.007 µM
